Results: ChEMBL document CHEMBL1146471, “Camptothecin and taxol: historic achievements in natural products research” (J Nat Prod, 2004)

Species on record: Homo sapiens
Assay: Anticancer activity against human with metastatic pancreatic cancer assessed as median survival
Assay type: functional

`CCc1c2c(nc3ccc(OC(=O)N4CCC(N5CCCCC5)CC4)cc13)-c1cc3c(c(=O)n1C2)COC(=O)[C@]3(O)CC` showed a Survival of 10.3 months.
